Experiments:
[1] = test system: Dermatophyten, Schimmelpilze, Hefen; assay: Antimycotic in-vitro activity, serial dilution test, overall comparison with prior-art compounds; type: cell-based; settings: compared in words with known compounds (A), (B) and (C)
Experimental: Versuchsbeschreibung: • Die in-vitro-Prüfungen wurden im Reihenverdünnungstest mit Keiminokula von durchschnittlich 5 x 10^3 bis 10^4 Keimen/ml Substrat durchgeführt. Als Nährmedium dienten • a) für Dermatophyten und Schimmelpilze: Sabourand's milieu d'epreuve • b) für Hefen: • Fleischextrakt-Traubenzucker-Bouillon.
Die Bebrütungstemperatur betrug 28 bis 37°C, die Bebrütungsdauer lag bei 24 bis 96 Stunden bei Hefen und 96 Stunden bei Dermatophyten und Schimmelpilzen.

Candida-Zellen = assay: Antimycotic in-vivo activity (oral) in mouse candidosis; parameters: species or system Mäuse vom Typ SPF-CF1; settings: mice infected i.v. with 1-2 x 10^6 Candida cells; oral 10 to 100 mg/kg one hour before and seven hours after infection; survival on day 6 p.i.
Experimental: Versuchsbeschreibung: • Mäuse vom Typ SPF-CF1 wurden intravenös mit-1-2 x 10^6 logarithmisch wachsenden Candida-Zellen, die in physiologischer Kochsalzlösung suspendiert werden, infiziert. Eine Stunde vor und sieben Stunden nach der Infektion werden die Tiere mit jeweils 10 bis 100 mg/kg Körpergewicht der Präparate oral behandelt.
Unbehandelte Tiere starben am 3. bis 6. Tag post infektionem. Die Überlebensrate am 6. Tag post infektionem betrug bei unbehandelten Kontrolltieren etwa 5 %.

Row | Structure (SMILES) | antimykotische Wirkung [1] | Wirkung (Candida-Zellen)
1 | CCSC1(C(O)(Cn2cncn2)c2ccc(Cl)cc2)CC1 (stereo not shown) [I-1, 1-(4-Chlorphenyl)-1-[1-(ethylthio)-1-cyclopropyl]-2-(1,2,4-triazol-1-yl)-1-ethanol] | bessere antimykotische Wirkung | +++++ (= sehr gute Wirkung = 90 % Überlebende am 6. Tag p.i.)
2 | OC(Cn1cncn1)(c1ccccc1)C1(Oc2ccc(Cl)cc2)CC1 (stereo not shown) [I-2] | bessere antimykotische Wirkung | +++++ (= sehr gute Wirkung = 90 % Überlebende am 6. Tag p.i.)
3 | CC[S+]([O-])C1(C(O)(Cn2cncn2)c2ccc(Cl)cc2)CC1 (stereo not shown) [I-3, 1-(4-Chlorphenyl)-1-[1-(ethylsulfinyl)-1-cyclopropyl]-2-(1,2,4-triazol-1-yl)-1-ethanol] | bessere antimykotische Wirkung | +++++ (= sehr gute Wirkung = 90 % Überlebende am 6. Tag p.i.)
4 | CCS(=O)(=O)C1(C(O)(Cn2cncn2)c2ccc(Cl)cc2)CC1 (stereo not shown) [I-4] | bessere antimykotische Wirkung | +++ (= Wirkung = 60 % Überlebende am 6. Tag p.i.)
5 | OC(Cn1cncn1)(c1ccc(Cl)cc1)C1(Oc2ccccc2)CC1 (stereo not shown) [I-5] | bessere antimykotische Wirkung | +++++ (= sehr gute Wirkung = 90 % Überlebende am 6. Tag p.i.)
6 | CCCCSC1(C(O)(Cn2cncn2)c2ccc(Cl)cc2)CC1 (stereo not shown) [I-6] | bessere antimykotische Wirkung | ++++ (= gute Wirkung = 80 % Überlebende am 6. Tag p.i.)
7 | CCCCS(=O)(=O)C1(C(O)(Cn2cncn2)c2ccc(Cl)cc2)CC1 (stereo not shown) [I-7] | bessere antimykotische Wirkung | +++++ (= sehr gute Wirkung = 90 % Überlebende am 6. Tag p.i.)
8 | OC(Cn1cncn1)(c1ccc(Cl)cc1)C1(Sc2ccc(Cl)cc2)CC1 (stereo not shown) [I-11] | bessere antimykotische Wirkung | –
9 | OC(Cn1cncn1)(c1ccc(Cl)cc1)C1(SCc2ccc(Cl)cc2)CC1 (stereo not shown) [I-13] | – | +++++ (= sehr gute Wirkung = 90 % Überlebende am 6. Tag p.i.)
